# Literature values, collected in patent publication US8518429B2, “Arsenic trioxide medical elution scaffold” (Beijing Amsino Medical Co., Ltd., priority 2007, dated 2013).
# Tests used:
# promyelocytic leukemia = details: used by hematologists in 1970s
# VSMCs = details: found by Zhuoqi ZHANG et al. and Jianwei SHAO et al.
substance,measurement,setting,value
Arsenic trioxide [As2O3],therapeutic effect in promyelocytic leukemia,promyelocytic leukemia,notable therapeutic effect
same,effects on VSMCs,VSMCs,"anti-proliferation, apoptosis promotion and cell cycle arrest"
